Literature values as cited in patent publication US7354953B2, “Time-release compositions for delivery of [Cr3O(carboxylate)6(H2O)3]+” (University of Alabama, priority 2006, dated 2008).

How the values were obtained:
[1] = system: adult-onset diabetic patients
[2] = in vivo
rats = conditions: for effect on body mass, percentage lean or fat content, tissue size, blood variables: rats on regular diets
insulin receptor = insulin receptor (Homo sapiens, UniProt P06213)
[3] = system: healthy and model type 2 diabetic rats
[4] = healthy and model type 2 diabetic rats

Chain of insulin receptor (P06213 763-1382 limits assumed, species assumed): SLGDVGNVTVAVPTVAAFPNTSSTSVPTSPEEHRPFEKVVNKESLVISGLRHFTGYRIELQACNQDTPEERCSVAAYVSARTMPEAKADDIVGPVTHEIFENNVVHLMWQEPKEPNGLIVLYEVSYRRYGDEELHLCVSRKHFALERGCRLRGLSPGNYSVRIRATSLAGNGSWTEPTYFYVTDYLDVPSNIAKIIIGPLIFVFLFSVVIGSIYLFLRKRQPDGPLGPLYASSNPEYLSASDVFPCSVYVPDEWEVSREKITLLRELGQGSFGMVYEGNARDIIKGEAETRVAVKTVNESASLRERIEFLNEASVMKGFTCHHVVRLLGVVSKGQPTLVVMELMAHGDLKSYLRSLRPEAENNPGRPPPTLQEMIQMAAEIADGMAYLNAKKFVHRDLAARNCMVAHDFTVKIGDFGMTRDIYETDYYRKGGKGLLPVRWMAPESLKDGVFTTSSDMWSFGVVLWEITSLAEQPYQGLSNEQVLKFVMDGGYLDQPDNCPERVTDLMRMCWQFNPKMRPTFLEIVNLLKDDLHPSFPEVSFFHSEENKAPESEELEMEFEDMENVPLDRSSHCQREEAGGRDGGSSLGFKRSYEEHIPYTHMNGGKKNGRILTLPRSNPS
Chain of insulin receptor (P06213 28-758 partner limits assumed, species assumed): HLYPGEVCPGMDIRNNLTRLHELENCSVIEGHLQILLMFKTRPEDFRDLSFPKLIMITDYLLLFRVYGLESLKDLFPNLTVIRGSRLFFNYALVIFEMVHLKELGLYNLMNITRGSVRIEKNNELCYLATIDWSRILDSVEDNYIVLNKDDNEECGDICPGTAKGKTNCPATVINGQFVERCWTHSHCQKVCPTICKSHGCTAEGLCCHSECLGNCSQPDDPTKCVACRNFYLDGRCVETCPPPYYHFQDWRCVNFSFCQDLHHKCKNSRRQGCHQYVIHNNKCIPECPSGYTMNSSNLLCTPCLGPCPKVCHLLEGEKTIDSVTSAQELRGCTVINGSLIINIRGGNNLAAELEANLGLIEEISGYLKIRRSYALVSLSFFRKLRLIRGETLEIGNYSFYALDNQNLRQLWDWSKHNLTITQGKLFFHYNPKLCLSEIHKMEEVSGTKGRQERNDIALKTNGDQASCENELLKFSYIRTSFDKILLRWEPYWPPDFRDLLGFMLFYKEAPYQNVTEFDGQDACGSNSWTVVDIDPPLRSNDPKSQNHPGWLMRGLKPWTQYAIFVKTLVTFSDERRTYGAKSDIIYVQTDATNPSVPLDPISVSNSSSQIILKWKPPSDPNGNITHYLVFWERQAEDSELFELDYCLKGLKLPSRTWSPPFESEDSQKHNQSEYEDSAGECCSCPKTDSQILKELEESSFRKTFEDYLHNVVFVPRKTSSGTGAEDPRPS

| Compound | insulin requirements ([1]; 138 adult-onset diabetic patients) | glycemic control ([1]; 180 adult-onset diabetic patients) | absorption efficiency [2] | effect on body mass, percentage lean or fat content, tissue size, blood variables (rats) | acute toxic effects (rats; rats, up to 1500 μg/kg diet for up to 24 weeks) | chromosome damage (chromosome) | ability to stimulate insulin receptor kinase activity (insulin receptor) | glycated hemoglobin ([3]; diabetes models) | blood plasma cholesterol and triglycerides levels [3, 4] | insulin sensitivity [3, 4] | onset of colorectal cancer (colorectal cancer in rat) | absorption (rate and efficiency, in words) [2] | DNA cleavage (DNA) |
| --- | --- | --- | --- | --- | --- | --- | --- | --- | --- | --- | --- | --- | --- |
| chromium(III) tris(picolinate) [Cr(pic)3] | reduced insulin requirements | improved glycemic control | 0.5-2% | no effect | no acute toxic effects | cause chromosome damage |  |  |  |  |  |  |  |
| [Cl][Cr]([Cl])[Cl] [chromium chloride] |  |  |  | no effect |  |  |  |  |  |  |  |  |  |
| CCC(=O)[O-].CCC(=O)[O-].CCC(=O)[O-].CCC(=O)[O-].CCC(=O)[O-].CCC(=O)[O-].O.O.O.[Cr+3].[Cr+3].[Cr+3].[O-2] [Complex 1, [[Cr3O(O2CCH2CH3)6(H2O)3]^+] |  |  | 40-60% |  |  |  | mimic the ability of LMWCr to stimulate insulin receptor kinase activity | reduce glycated hemoglobin | improve | increase insulin sensitivity | reduce the onset of colorectal cancer | absorbed very rapidly and very efficiently | not to lead to DNA cleavage |
